What was measured:
KSR1 = target: T1, KSR1 (Homo sapiens, UniProt Q8IVT5); details: 1 μM; Run 1, Run 2
T1 sequence (Q8IVT5 1-923): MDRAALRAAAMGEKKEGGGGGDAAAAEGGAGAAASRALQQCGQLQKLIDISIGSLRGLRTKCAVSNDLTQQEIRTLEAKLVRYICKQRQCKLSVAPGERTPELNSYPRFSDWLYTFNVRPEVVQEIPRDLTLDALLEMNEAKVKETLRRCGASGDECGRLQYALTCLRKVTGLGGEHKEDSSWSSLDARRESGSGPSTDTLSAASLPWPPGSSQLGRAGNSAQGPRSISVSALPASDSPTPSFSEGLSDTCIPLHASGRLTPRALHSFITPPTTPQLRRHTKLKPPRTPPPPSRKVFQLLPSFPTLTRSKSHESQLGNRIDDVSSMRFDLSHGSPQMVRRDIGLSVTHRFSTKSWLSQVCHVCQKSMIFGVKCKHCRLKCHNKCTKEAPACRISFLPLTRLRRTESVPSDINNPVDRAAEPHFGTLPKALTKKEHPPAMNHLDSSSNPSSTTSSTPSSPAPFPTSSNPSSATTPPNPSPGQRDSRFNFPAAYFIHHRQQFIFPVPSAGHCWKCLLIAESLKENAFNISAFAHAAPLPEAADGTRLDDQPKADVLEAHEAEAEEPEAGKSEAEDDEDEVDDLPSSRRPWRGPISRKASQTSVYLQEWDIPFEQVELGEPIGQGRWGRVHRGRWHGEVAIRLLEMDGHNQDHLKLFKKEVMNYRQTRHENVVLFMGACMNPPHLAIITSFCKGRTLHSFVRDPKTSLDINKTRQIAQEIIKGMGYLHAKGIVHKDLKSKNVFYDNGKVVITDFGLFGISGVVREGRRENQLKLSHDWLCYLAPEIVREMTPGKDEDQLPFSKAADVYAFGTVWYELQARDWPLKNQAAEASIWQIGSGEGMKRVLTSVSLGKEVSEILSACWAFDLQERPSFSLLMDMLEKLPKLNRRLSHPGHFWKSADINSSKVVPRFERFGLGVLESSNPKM

PKCepsilon = target: T2, PKCepsilon (Homo sapiens, UniProt Q02156); details: 1 μM; Run 1, Run 2
T2 sequence (Q02156 1-737): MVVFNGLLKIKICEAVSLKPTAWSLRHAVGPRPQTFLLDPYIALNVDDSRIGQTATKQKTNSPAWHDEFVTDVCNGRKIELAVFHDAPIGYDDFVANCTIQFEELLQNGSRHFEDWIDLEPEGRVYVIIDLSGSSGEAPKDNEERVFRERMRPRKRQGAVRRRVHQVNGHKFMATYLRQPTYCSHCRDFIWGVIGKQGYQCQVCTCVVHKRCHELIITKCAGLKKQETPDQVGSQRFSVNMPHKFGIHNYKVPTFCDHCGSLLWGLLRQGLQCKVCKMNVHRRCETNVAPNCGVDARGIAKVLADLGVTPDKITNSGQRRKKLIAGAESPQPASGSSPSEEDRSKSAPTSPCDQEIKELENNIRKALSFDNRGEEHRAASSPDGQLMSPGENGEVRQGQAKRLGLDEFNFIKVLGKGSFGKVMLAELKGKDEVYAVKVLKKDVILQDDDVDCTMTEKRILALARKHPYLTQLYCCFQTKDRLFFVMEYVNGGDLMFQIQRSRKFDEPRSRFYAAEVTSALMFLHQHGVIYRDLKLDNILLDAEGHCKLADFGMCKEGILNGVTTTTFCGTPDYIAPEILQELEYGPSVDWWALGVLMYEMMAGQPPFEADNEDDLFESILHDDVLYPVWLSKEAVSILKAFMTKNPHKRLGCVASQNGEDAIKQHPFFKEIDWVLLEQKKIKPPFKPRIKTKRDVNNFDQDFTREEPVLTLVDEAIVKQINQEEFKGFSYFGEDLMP

TESK1 = TESK1 (Homo sapiens, UniProt Q15569); assay: biochemical; details: read-out: % enzyme activity, 1 μM; Run 1, Run 2
Sequence of TESK1 (Q15569 whole entry): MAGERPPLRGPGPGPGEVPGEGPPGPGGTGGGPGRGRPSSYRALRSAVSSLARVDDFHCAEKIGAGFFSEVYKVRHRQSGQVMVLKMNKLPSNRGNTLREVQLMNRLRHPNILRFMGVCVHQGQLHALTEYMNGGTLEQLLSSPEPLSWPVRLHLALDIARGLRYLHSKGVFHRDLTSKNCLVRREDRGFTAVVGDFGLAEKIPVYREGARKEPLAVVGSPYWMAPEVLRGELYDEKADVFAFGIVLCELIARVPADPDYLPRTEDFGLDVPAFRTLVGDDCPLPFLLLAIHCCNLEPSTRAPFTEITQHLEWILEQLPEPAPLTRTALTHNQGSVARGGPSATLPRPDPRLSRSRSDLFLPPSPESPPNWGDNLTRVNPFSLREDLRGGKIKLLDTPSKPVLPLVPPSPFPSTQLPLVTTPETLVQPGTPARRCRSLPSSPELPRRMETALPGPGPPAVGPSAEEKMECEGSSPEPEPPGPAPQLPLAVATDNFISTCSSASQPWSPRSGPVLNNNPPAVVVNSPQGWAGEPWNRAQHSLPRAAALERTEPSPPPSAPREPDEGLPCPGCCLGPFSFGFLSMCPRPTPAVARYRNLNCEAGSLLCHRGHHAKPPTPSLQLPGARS

ERN2/IRE2 = ERN2/IRE2 (Homo sapiens, UniProt Q76MJ5); assay: biochemical; details: read-out: % enzyme activity, 1 μM; Run 1, Run 2
Sequence of ERN2/IRE2 (Q76MJ5 35-926): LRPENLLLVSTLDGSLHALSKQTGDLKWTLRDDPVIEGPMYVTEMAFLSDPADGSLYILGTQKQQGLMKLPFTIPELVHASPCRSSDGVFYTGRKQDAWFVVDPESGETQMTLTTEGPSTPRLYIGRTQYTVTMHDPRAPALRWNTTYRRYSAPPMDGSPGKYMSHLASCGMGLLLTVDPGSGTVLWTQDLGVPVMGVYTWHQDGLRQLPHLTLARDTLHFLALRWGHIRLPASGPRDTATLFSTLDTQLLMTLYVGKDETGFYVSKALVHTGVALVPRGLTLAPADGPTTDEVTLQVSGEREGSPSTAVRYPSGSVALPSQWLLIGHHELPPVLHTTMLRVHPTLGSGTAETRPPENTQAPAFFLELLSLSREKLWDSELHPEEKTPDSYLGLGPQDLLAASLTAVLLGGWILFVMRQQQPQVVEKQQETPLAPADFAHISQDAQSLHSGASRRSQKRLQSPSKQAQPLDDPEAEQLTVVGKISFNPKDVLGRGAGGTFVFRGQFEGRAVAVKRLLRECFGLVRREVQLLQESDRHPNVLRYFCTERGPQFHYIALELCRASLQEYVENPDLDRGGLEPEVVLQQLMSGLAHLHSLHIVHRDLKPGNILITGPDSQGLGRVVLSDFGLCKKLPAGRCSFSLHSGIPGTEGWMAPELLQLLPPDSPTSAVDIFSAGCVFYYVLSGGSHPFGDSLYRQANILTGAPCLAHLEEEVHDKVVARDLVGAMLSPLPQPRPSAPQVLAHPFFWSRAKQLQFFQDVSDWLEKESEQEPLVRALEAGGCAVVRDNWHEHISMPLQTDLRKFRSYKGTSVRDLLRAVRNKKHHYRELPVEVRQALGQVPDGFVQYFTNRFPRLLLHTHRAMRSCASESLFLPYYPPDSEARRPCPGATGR

PAK5 = PAK5 (Homo sapiens, UniProt Q9P286); assay: biochemical; details: read-out: % enzyme activity, 1 μM; Run 1, Run 2
Sequence of PAK5 (Q9P286 whole entry): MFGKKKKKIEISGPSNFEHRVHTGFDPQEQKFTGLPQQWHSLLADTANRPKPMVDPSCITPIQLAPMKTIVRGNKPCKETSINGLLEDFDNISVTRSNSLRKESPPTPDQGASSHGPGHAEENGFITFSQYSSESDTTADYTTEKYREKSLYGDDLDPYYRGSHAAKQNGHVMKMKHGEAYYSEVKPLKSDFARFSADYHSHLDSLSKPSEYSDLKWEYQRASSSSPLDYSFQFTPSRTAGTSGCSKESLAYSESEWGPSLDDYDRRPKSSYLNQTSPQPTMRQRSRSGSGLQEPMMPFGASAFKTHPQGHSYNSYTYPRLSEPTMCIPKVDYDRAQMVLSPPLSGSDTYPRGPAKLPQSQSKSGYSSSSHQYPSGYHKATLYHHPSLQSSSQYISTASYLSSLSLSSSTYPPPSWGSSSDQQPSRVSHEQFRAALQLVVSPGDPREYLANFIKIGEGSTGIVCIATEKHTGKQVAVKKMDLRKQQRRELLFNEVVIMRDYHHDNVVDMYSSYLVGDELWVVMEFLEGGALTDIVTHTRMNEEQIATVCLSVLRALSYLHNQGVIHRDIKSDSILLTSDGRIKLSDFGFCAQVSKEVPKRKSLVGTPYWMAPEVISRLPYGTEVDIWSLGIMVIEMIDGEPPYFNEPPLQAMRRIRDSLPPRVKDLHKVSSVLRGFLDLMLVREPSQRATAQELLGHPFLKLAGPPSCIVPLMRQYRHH

MARK1 = MARK1 (Homo sapiens, UniProt Q9P0L2); details: 1 μM; Run 1, Run 2
Sequence of MARK1 (Q9P0L2 whole entry): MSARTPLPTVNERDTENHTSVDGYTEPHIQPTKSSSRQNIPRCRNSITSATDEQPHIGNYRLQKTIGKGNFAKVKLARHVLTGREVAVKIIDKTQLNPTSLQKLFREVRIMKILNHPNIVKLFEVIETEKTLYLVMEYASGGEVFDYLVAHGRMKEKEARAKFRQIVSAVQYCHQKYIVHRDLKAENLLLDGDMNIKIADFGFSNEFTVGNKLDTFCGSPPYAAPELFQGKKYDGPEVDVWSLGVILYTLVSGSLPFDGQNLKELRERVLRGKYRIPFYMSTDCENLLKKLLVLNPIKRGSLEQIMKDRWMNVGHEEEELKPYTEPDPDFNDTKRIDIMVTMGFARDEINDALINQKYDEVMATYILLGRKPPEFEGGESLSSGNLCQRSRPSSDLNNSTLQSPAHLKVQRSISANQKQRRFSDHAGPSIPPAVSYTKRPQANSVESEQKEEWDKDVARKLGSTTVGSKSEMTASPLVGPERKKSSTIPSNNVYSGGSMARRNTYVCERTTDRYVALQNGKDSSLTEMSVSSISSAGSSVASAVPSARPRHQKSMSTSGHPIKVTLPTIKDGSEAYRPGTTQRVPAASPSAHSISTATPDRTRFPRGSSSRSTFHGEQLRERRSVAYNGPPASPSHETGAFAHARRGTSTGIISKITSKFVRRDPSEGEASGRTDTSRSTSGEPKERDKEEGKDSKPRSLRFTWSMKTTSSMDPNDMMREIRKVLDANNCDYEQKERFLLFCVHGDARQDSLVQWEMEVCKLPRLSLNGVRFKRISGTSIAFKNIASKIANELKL

EPHB4 = target: T3, EPHB4 (Homo sapiens, UniProt P54760); assay: biochemical; details: read-out: % enzyme activity, 1 μM; Run 1, Run 2
T3 sequence (P54760 16-987): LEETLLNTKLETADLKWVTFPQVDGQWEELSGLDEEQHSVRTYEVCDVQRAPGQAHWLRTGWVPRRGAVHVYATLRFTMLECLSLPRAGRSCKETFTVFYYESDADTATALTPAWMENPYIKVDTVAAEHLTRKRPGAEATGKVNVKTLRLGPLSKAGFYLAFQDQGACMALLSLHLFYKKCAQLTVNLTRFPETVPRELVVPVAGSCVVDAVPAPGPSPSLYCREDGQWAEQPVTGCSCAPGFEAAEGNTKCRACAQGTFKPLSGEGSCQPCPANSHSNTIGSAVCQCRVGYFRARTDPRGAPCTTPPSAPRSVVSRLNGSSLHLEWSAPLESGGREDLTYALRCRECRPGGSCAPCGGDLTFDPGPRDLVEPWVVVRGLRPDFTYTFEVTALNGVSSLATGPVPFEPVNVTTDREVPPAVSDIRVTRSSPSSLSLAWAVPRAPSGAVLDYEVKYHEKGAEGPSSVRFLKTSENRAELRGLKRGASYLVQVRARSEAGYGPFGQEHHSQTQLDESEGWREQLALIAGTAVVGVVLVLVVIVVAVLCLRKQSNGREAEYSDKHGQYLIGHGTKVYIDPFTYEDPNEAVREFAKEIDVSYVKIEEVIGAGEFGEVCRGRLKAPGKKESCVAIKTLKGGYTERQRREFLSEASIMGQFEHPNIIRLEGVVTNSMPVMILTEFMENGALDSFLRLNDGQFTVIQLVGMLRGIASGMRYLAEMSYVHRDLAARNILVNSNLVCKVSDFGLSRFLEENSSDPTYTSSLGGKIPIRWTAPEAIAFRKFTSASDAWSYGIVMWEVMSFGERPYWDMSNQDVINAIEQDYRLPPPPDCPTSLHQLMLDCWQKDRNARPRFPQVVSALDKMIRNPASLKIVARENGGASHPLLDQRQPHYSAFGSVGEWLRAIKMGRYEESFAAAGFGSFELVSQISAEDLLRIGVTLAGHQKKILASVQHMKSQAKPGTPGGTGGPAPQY

STK32C/YANK3 = STK32C/YANK3 (Homo sapiens, UniProt Q86UX6); assay: biochemical; details: read-out: % enzyme activity, 1 μM; Run 1, Run 2
Sequence of STK32C/YANK3 (Q86UX6 whole entry): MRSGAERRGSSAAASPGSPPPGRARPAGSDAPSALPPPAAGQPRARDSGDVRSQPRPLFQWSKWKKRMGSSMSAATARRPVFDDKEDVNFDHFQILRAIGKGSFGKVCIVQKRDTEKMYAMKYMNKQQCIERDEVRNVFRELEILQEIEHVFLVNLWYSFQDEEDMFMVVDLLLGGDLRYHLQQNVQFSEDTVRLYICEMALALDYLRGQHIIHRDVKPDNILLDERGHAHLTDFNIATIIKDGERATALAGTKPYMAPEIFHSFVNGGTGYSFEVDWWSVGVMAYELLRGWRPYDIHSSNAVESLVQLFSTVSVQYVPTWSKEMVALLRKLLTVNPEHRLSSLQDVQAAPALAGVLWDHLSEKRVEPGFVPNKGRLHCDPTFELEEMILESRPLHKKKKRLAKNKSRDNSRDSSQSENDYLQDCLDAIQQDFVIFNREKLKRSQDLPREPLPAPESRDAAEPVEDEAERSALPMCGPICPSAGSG

CDK2/cyclin A = CDK2/cyclin A (Homo sapiens, UniProt P24941); details: 1 μM; Run 1, Run 2

Row | Compound | % enzyme activity (KSR1) [%] | % enzyme activity (PKCepsilon) [%] | remaining activity at 1 µM (TESK1) [%] | remaining activity at 1 µM (ERN2/IRE2) [%] | remaining activity at 1 µM (PAK5) [%] | % enzyme activity (MARK1) [%] | remaining activity at 1 µM (EPHB4) [%] | remaining activity at 1 µM (STK32C/YANK3) [%] | % enzyme activity (CDK2/cyclin A) [%]
1 | COc1cc(-c2cncc(-c3ccc(N4C[C@@H](C)N(C)[C@@H](C)C4)cc3)c2C)cc(F)c1C(N)=O [Compound 26c, 2-Fluoro-6-methoxy-4-(4-methyl-5-(4-((3R,5S)-3,4,5-trimethylpiperazin-1-yl)phenyl)pyridin-3-yl)benzamide] | 95.91 | 105.76 | 105 | 98.9 | 97.3 | 89.90 | 91.5 | 93.3 | 98.65
2 | COc1cc(-c2cncc(-c3ccc(N4CCN(C)CC4)cc3)c2C)cc(F)c1C(N)=O [Compound 26a, 2-Fluoro-6-methoxy-4-(4-methyl-5-(4-(4-methylpiperazin-1-yl)phenyl)pyridin-3-yl)benzamide] | 93.83 | 96.64 | 114 | 97.5 | 94.6 | 87.63 | 94.7 | 86.8 | 97.95
